Article PMC5720837, “Identification of a 4-fluorobenzyl L-valinate amide benzoxaborole (AN11736) as a potential development candidate for the treatment of Animal African Trypanosomiasis (AAT)” (Bioorganic & Medicinal Chemistry Letters, 2018)

Key:
[1] = test system: Trypanosoma congolense (T. congolense IL-3000 strain), bloodstream form; assay: Whole cell Alamar Blue assay, T. congolense (72 h in vitro); assay type: cell-based; conditions: T. congolense IL-3000, 72 h in vitro Alamar Blue assay
Method: (§1) Activity of compounds 1–71 against T. congolense and T. vivax was determined using the whole cell assays as described ^6 and their IC50 values are summarized in Table 1.
(§2) [6] Assay methods for determination of T. c. and T. v. […] Culture media consisted of complete HMI-9 (IMDM) with 20% bovine serum. To ensure log growth phase, trypanosomes were sub-cultured at appropriate dilutions every 2–3 days. Bloodstream form Trypanosoma vivax (T. vivax) cannot be cultured axenically, therefore trypanosomes (T. vivax STIB719/ILRAD 560 strain) were harvested from a highly parasitemia mouse via cardiac puncture and used directly in the ex vivo drug sensitivity assay on the same day. […] Parasite starting concentrations of 2 × 10^5 (T. c.) and 4 × 10^5 (T. v.) were calculated respectively, using a cell analyzer system or haemo-cytometer, followed by quantification at 536 nm excitation and 588 nm emission wavelengths using a […] reader. Test compounds were prepared as 10 mg/mL DMSO stocks for each assay run. Compounds were assayed in at least three separate, independent test runs and an 11-point dilution curve was used to determine the IC50 values. Data points were averaged to generate sigmoidal dose-response curves and IC50 values were determined using Softmax Pro 5.2 software.

[2] = test system: Trypanosoma vivax (T. vivax STIB719/ILRAD 560 strain), bloodstream form; assay: Whole cell Alamar Blue assay, T. vivax (48 h ex vivo); assay type: cell-based; conditions: Trypanosoma vivax; T. vivax STIB719/ILRAD 560, 48 h ex vivo Alamar Blue assay
Method: as §1, §2

[3] = test system: T. c. parasites (STIB736/IL1180 strain); assay: In vivo mouse model of T. congolense infection; set-up: species or system NMRI female mice; conditions: intraperitoneal, monitored 60 days post treatment
Method: (§3) Selected compounds were screened in both mouse and bovine in vitro metabolic stability assays (mouse S9 and bovine S9), as summarized in Table 2. These two species were chosen because the primary in vivo assays were conducted in mice, and the target animal of this research program is cattle. […] We evaluated the efficacy of selected compounds in two in vivo mouse models of infection, against T. congolense and T. vivax, respectively. Mice were infected with either 1 × 10^5 T. c. parasites or 1 × 10^4 T. v. parasites, and then treated with a test compound via intraperitoneal administration for 1, 2 or 4 consecutive days. The mice were then monitored for the presence of parasitemia for up to 60 days post treatment.[7] We tested in T. c. model first, then followed up with T. v. for interesting compounds. […] We selected compound 5 (AN11736) to progress to exploratory studies to determine the efficacy and safety in a preliminary formulation against induced infections of T. vivax and T. congolense in cattle.[8]
[7] Methods for testing compound efficacy in mouse models: In vivo mouse efficacy studies were performed at the Swiss TPH, using established mouse models of infection for T. c. and T. v. NMRI female mice were independently infected either with 1 × 10^5T. c. parasites/mouse (STIB736/IL1180 strain) or 1 × 10^4T. v. parasites/mouse (STIB719/ILRAD560 strain) using an intraperitoneal route. Parasitemia was allowed to develop over 7 days (T. c.) or 3 days (T. v.), respectively, before treatment was administered. Compounds were administered via intraperitoneal injection in 10% DMSO/water. Four mice were used per treatment group. Mice were monitored for the presence of trypanosomes, via tail blood examination microscopically with twice-per-week parasitemia checks for 60 days post treatment. Parasitemia was graded on a scale of 0–3, with 0 indicating no trypanosomes seen in 20 fields of view, 1 indicating the presence of 1–5 trypanosomes per field, 2 indicating the presence of 6–20 trypanosomes per field and 3 indicating greater than 20 trypanosomes per field. Mice scoring 2 or 3 were immediately euthanized. After 60 days, aparasitemic mice were considered cured. Untreated control mice survive on average for 10 and 6 days post infection for T. c. and T. v., respectively. All in vivo mouse experiments were conducted in accordance with the strict guidelines set out by the Swiss Federal Veterinary Office, under the ethical approval of license number #2813.

[4] = In vitro metabolic stability, bovine S9; assay type: in vitro ADME; conditions: S9 fraction
Method: as §3

[5] = In vitro metabolic stability, mouse S9; assay type: in vitro ADME; conditions: S9 fraction
Method: as §3

SMILES | IC50 [1] | IC50 ([1]; Trypanosoma congolense, 72 h) | IC50 [2] | Efficacy in mouse model T. c., n/m (mice survived / total mice in group) ([3]; 1 × 10 mg/kg) | microsomal CLint [4] | microsomal CLint [5] | Efficacy in mouse model T. c., n/m (mice survived / total mice in group) ([3]; 2 × 10 mg/kg) | Efficacy in mouse model T. c., n/m (mice survived / total mice in group) ([3]; 4 × 10 mg/kg)
C[C@H](NC(=O)c1ccc2c(c1)B(O)OC2)C(=O)OCc1ccccc1 [Compound 1] | 4.9 nM | 5 nM | 69 nM |  |  |  |  | 
Cc1c(C(=O)N[C@H](C(=O)OCc2ccc(Cl)cc2)C(C)C)ccc2c1B(O)OC2 [Compound 6] |  | 0.47 nM | 2.9 nM | 0/4 (1 × 10) | 9.1 µL/min/mg | 17 µL/min/mg |  | 
Cc1c(C(=O)N[C@H](C(=O)OCc2cccc(C#N)c2)C(C)C)ccc2c1B(O)OC2 [Compound 14] |  | 0.1 nM | 0.06 nM | 0/4 (1 × 10) | 2.7 µL/min/mg | 9.1 µL/min/mg |  | 
Cc1c(C(=O)N[C@H](C(=O)OCc2ccc(F)c(Cl)c2)C(C)C)ccc2c1B(O)OC2 [Compound 16] |  | 0.08 nM | 0.07 nM | 1/4 | 8.9 µL/min/mg | 15 µL/min/mg | 4/4 | 
Cc1c(C(=O)N[C@H](C(=O)OCc2ccc(F)c(C(F)(F)F)c2)C(C)C)ccc2c1B(O)OC2 [Compound 17] |  | 0.21 nM | 0.04 nM | 0/4 (1 × 10) | 10 µL/min/mg | 14 µL/min/mg |  | 
Cc1c(C(=O)N[C@H](C(=O)OCc2cc(F)c(F)c(F)c2)C(C)C)ccc2c1B(O)OC2 [Compound 18] |  | 0.2 nM | 0.06 nM | 1/4 (1 × 10) | 3.1 µL/min/mg | 9.7 µL/min/mg |  | 
Cc1c(C(=O)N[C@H](C(=O)OCc2ccc(S(C)(=O)=O)cc2)C(C)C)ccc2c1B(O)OC2 [Compound 19] |  | 0.61 nM | 0.44 nM | 0/4 (1 × 10) | 1.3 µL/min/mg | 2.6 µL/min/mg |  | 
CC(C)[C@H](NC(=O)c1ccc2c(c1)B(O)OC2)C(=O)OCc1ccc(F)cc1 [Compound 20] |  | 3 nM | 1 nM |  | 1.3 µL/min/mg | 1.5 µL/min/mg |  | 0/5 (4 × 10)
CC(C)[C@H](NC(=O)c1ccc2c(c1C(F)F)B(O)OC2)C(=O)OCc1ccc(F)cc1 [Compound 22] |  | 0.67 nM | 0.92 nM | 0/4 (1 × 10) | 0.9 µL/min/mg | 1.4 µL/min/mg |  | 

The next lines start with results.

IC50 [1] | IC50 ([1]; Trypanosoma congolense, 72 h) | IC50 [2] | SMILES | Efficacy in mouse model T. c., n/m (mice survived / total mice in group) ([3]; 1 × 10 mg/kg) | microsomal CLint [4] | microsomal CLint [5] | Efficacy in mouse model T. c., n/m (mice survived / total mice in group) ([3]; 2 × 10 mg/kg) | Efficacy in mouse model T. c., n/m (mice survived / total mice in group) ([3]; 4 × 10 mg/kg)
 | 2580 nM | 9190 nM | CC(C)[C@H](NC(=O)c1ccc2c(c1)B(O)OC2(C)C)C(=O)OCc1ccccc1 [Compound 3] |  |  |  |  | 
 | 0.59 nM | 0.1 nM | Cc1c(C(=O)N[C@H](C(=O)OCc2cccc(F)c2)C(C)C)ccc2c1B(O)OC2 [Compound 7] |  |  |  |  | 
 | 0.18 nM | 0.1 nM | Cc1c(C(=O)N[C@H](C(=O)OCc2cc(F)cc(F)c2)C(C)C)ccc2c1B(O)OC2 [Compound 9] |  |  |  |  | 
 | 0.22 nM | 2.7 nM | Cc1c(C(=O)N[C@H](C(=O)OCc2cccc(C(F)(F)F)c2)C(C)C)ccc2c1B(O)OC2 [Compound 10] |  |  |  |  | 
 | 0.16 nM | 24 nM | Cc1c(C(=O)N[C@H](C(=O)OCc2ccc(C(F)(F)F)cc2)C(C)C)ccc2c1B(O)OC2 [Compound 11] |  |  |  |  | 
 | 0.31 nM | 19 nM | Cc1c(C(=O)N[C@H](C(=O)OCc2cccc(OC(F)(F)F)c2)C(C)C)ccc2c1B(O)OC2 [Compound 12] |  |  |  |  | 
 | 0.23 nM | 0.04 nM | Cc1c(C(=O)N[C@H](C(=O)OCc2ccc(OC(F)(F)F)cc2)C(C)C)ccc2c1B(O)OC2 [Compound 13] |  |  |  |  | 
 | 0.15 nM | 0.05 nM | Cc1c(C(=O)N[C@H](C(=O)OCc2ccc(C#N)cc2)C(C)C)ccc2c1B(O)OC2 [Compound 15] |  |  |  |  | 
 | 37 nM | 51 nM | CC(C)[C@H](NC(=O)c1ccc2c(c1C(F)(F)F)B(O)OC2)C(=O)OCc1ccc(F)cc1 [Compound 23] |  |  |  |  | 
 | 3 nM | 4.7 nM | CCCc1c(C(=O)N[C@H](C(=O)OCc2ccc(F)cc2)C(C)C)ccc2c1B(O)OC2 [Compound 25] |  |  |  |  | 
 | 3.9 nM | 0.71 nM | CC(C)[C@H](NC(=O)c1ccc2c(c1C1CC1)B(O)OC2)C(=O)OCc1ccc(F)cc1 [Compound 27] |  |  |  |  | 
